The values that follow come from patent US9616125B2, “Stable nocathiacin lyophilized injection agent” (priority 2013, dated 2017).

Data set [1] can be described thus: Aqueous solubility of nocathiacin I versus pH (shake 24 h, filtration, HPLC).
Experimental: Excessive purified material of nocathiacin I is added in test tubes with stopper respectively, and a certain amounts of buffer solutions with pH 2, pH 3, pH 4, pH 5, pH 6 and pH 7 are added to ensure that the solutions are in a supersaturated state all the time, and the solutions are shaken for 24 h under room temperature. Then the solutions are filtered through a 0.22 millipore filter, and the subsequent filtrate is taken and fed in a high performance liquid chromatography to measure the drug contents. The chromatogram conditions are as follows. • Chromatographic column: Waters Symmetry, 150 mm×4.6 mm, 5 μm.
Mobile phase: A. distilled water containing 0.05% TFA; and B. acetonitrile containing 0.05% TFA.
Gradient: Gradient elution for 32 min, 30%-60% B.
Column temperature: 40° C., and rate of flow: 1 ml/min
Detection wavelength: 362 nm, and sample volume: 10 μl.
The subject of data set [2] is methicillin-resistant staphylococcus aureus (MRSA). The note with it: cited from earlier work.
For data set [3], the system named is penicillin-resistant streptococcus pneumoniae (PRSP). The note with it: cited from earlier work.
Data set [4] concerns vancomycin-resistant enterococcus (VRE). The note with it: cited from earlier work.
Data set [5] deals with mycobacterium tuberculosis. The note with it: cited from earlier work.

On to `C=C(NC(=O)c1csc(-c2nc3c(cc2O)-c2nc(cs2)C(=O)N[C@@H]([C@@H](C)O)C(=O)N/C(=C(\C)OC)c2nc(cs2)C(=O)N[C@@H]2c4nc(cs4)C(=O)N[C@@H](COC(=O)c4c5c6c(cccc6n4O)COC(=O)[C@@H](O[C@H]4C[C@](C)(O)[C@H](N(C)C)[C@H](C)O4)[C@H]2OC5)c2nc-3cs2)n1)C(N)=O.O=C(O)C(F)(F)F` [nocathiacin I], for which the “concentration of nocathiacin I solution that can be obtained” value in data set [1] (pH value of the liquid formulation controlled below 6) was “more than 0.5 mg/mL”. For the same molecule, the “solubility of nocathiacin I as a function of pH” value in data set [1] (within a scope of pH 1-7, FIG. 1) was “decreases with the increase of pH value”.
Regarding nocathiacin, the effective concentration entry in data set [2], in data set [3], in data set [4] and in data set [5] was “less than 1 μg/ml” throughout.
